From ChEMBL document CHEMBL3886420, “Substituted pyrimidine compounds and their use as SYK inhibitors” (2015)

Target: Tyrosine-protein kinase SYK (Homo sapiens, UniProt P43405)
Test: Inhibition Assay: Compounds of the invention were initially diluted to 10 mM in 100% DMSO (CALBIOCHEM) for storage and made into kinase buffer solution to create a compound concentration ranging from 1 uM and 10 uM. Serial dilutions of compounds of the invention were dispensed into a 96-well plate (GREINER BIOSCIENCES) at 6 uL each. Purified full-length human SYK (CARNA BIOSCIENCES) were diluted …

IC50: 45.6 nM
SMILES: CCOC(=O)n1cc(C(C)=O)c2cc(Nc3nccc(-n4cc(CN5C[C@H](O)CO5)c(C)n4)n3)ccc21
